# Reference: article PMC3644560 (Journal of the American Chemical Society, 2013)
# How the values were obtained:
# E. coli IspH [1] = molecular target: T1, E. coli IspH (Escherichia coli, UniProt P62623); assay: IspH inhibition assay using [3-14C]HMBPP and the NADPH/FpR1/FldA reducing system; format: biochemical; conditions: steady-state studies with [3-14C]HMBPP and NADPH/FpR1/FldA
# E. coli IspH [2] = molecular target: T1, E. coli IspH; format: biochemical
# E. coli IspH [3] = molecular target: T1, E. coli IspH; assay: Spectrophotometric IspH assay; format: biochemical; conditions: for substrate for IspH (NADPH consumption at 340 nm): 200 μM compound, IspH 0.5 μM, anaerobic, pH 8
# Aquifex aeolicus IspH = conditions: Aquifex aeolicus enzyme, DT-reduced MV ref 26; cited from earlier work
# [4] = fit of kapp vs [AMBPP] to Eqn 2, mechanism A, pH 8, 37 °C
# T1 sequence (P62623 whole entry): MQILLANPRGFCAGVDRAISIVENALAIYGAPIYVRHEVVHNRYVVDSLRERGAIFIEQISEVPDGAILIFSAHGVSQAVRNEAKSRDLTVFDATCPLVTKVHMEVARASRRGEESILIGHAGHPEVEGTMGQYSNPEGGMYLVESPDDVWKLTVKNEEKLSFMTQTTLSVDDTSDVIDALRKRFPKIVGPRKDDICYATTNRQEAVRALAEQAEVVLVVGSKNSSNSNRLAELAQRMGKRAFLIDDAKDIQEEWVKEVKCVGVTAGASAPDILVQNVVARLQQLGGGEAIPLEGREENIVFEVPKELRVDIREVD
Compound,mode of inhibition (E. coli IspH [1]),IC50 (E. coli IspH [2]),substrate for IspH (NADPH consumption at 340 nm) (E. coli IspH [3]),IC50 (Aquifex aeolicus IspH),Ki (E. coli IspH [3]),effect of pH on inhibition constant and rate of binding to IspH (E. coli IspH [3]; Figures S5 and S6),k3 (rate constant of formation of the EI complex) (E. coli IspH [3]; [4]),k4 (rate constant of dissociation of the EI complex) (E. coli IspH [3]; [4])
"C/C(=C\COP(=O)(O)OP(=O)(O)O)CS.N.N [TMBPP, (E)-4-Mercapto-3-methyl-but-2-en-1-yl diphosphate bis ammonium salt]",competitive inhibitor,210 ± 10 nM,not substrates for IspH,–,–,–,–,–
C#CCCOP(=O)(O)OP(=O)(O)O [3-butynyl diphosphate],–,–,–,450 nM,–,–,–,–
"C/C(=C\COP(=O)(O)OP(=O)(O)O)CN.N.N [AMBPP, (E)-4-Amino-3-methylbut-2-enyl 1-diphosphate bis ammonium salt]",competitive inhibition was confirmed,150 ± 20 nM,not substrates for IspH,–,54 ± 19 nM,decrease as pH increases,41000 M⁻¹ s⁻¹,0.0022 s⁻¹
